Results on two compounds are retold here after patent US8506973B2, “Injectable anticancer composition for local administration containing hydroxychloroquine” (priority 2009, dated 2013).

Data set [1] can be described thus: Solubility of hydroxychloroquine (statement). It counts as physicochemical.
Another data set has as its system Sarcoma-180 cells. Briefly: Inhibitory effect on differentiation of subcutaneously transplanted Sarcoma-180 cells in ICR mice. As to conditions: cisplatin 20 mg/m^2, 12 animals per group, average of two tests. In kind it is in vivo. How it is done: A sarcoma-180 cell suspension having a cell concentration of 2×10^7 cells/ml was transplanted by subcutaneous injection into the inguinal region of all the groups excluding the normal group, thereby inducing solid cancer.
On the final day of the test, the animals were biopsied, and the number of animals in which sarcoma-180 cells stably grew was measured and used as an anticancer index. The same test was carried out twice, and the two measurements were averaged.

For the compound `CCN(CCO)CCCC(C)Nc1ccnc2cc(Cl)ccc12` (centres unmarked) [hydroxychloroquine], in data set [1], the “solubility at room temperature (in words)” value was “insoluble at room temperature”.
Take `N.N.[Cl][Pt][Cl]` [cisplatin, Cisplatin]: the “number of animals in which cancer cells were observed in the inguinal region by biopsy” value in the data set with Sarcoma-180 cells is 4.5 animals.
